Experimental data as given in US11371994B2, “Phosphorylated Akt-specific capture agents, compositions, and methods of using and making” (California Institute of Technology, priority 2013, dated 2022).
Entries after “also recorded” stand apart in the source; their conditions may differ. Square brackets hold non-standard residues; d marks the D form. Ends that are not written are not given here. * marks the point of attachment. S3 = D-Pra clicked to acylated azidolysine-PEG2-biotin, with 5-azido-pentanoic acid; 5FAM = O=C1OC2(c3ccc(O)cc3Oc3cc(O)ccc32)c2ccc(C(=O)*)cc21; 5‑azidopentanoyl = [N-]=[N+]=NCCCCC(=O)*; Lys(N3) = [N-]=[N+]=NCCCC[C@H](N)C(=O)O; Peg2 = PEG spacer (Fmoc-NH-(PEG)2-OH); dPra = C#CC[C@@H](N)C(=O)O; Ahx = NCCCCCC(=O)O

Columns and labels:
Akt = target: T1, Akt (Homo sapiens, UniProt P31751); experiment: OVCAR3 lysate pull-down (immunoprecipitation) assay; assay type: binding; details: for immunoprecipitation of Akt from OVCAR3 cell lysate: eluents stained with pan-Akt antibody
T1 construct: endogenous in cells; host or cells: OVCAR3
T1 sequence (P31751 whole entry): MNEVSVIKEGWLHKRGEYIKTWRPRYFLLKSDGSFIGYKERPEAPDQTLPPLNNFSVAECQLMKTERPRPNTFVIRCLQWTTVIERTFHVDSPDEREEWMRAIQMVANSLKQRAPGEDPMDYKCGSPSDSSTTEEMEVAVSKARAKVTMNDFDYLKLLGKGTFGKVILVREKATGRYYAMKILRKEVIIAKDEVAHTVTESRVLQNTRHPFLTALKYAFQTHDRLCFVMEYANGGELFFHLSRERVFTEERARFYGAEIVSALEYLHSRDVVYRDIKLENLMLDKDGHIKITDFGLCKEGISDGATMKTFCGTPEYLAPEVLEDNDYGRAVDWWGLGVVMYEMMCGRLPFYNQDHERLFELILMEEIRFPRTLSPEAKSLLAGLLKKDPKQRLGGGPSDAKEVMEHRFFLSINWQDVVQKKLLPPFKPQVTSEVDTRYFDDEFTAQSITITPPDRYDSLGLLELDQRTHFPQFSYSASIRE
Description: OVCAR3 cells (ATCC) were grown in RPMI-1640 media containing 20% fetal bovine serum. Passage three cells were grown to ˜80% confluence. Cells were lysed with lysis buffer (10 mM Tris-Cl (pH=7.5), 100 mM NaCl, 1% (v/v) Triton X-100, 0.1% SDS (w/v), 0.5% deoxycholate, 1 mM DTT, 1 mM EDTA, 1× PhosStop phosphatase inhibitors (Roche), 1× Complete protease inhibitors (Roche)) and the amount of protein measured using BCA Protein Assay Kit (Pierce Biotechnologies, Inc). Streptavidin-agarose resin solution (EMD) was swelled in TBST (25 mM tris chloride, pH=7.5, 150 mM NaCl, 0.05% Tween-20). Each of the biotinylated ligands was immobilized on the Streptavidin-agarose resin by adding 7.2 μL of 1 mM ligand stock (DMSO) to 10 μL of the swelled streptavidin-agarose resin. For the blank control, the resin was treated with 7.2 μL of 1 mM biotinylated acyl glycine. […] After shaking overnight at 4° C., 50 μM D-biotin was added to the resin to block any remaining sites. The resin was washed with TBST five times, for fifteen minutes each. The resin was then swelled in binding buffer for two hours. To each of the immobilized ligands, 200 μL OVCAR3 cell lysate (1.9 mg/ml) was added. The tubes were shaken at 4° C. for 18 hours. The beads were extensively washed, three times for fifteen minutes in binding buffer, three times (fifteen minutes) in TBST, and three times (fifteen minutes) in TBS to remove unbound proteins. The resin bound proteins were eluted by adding 40 μL of 2×SDS-PAGE sample loading buffer (BioRad) and heating at 95° C. for five minutes. A 1:10 diluted sample of lysate in sample loading buffer was prepared by mixing 1 μL of the sample with 9 μL sample loading buffer and denaturing the sample by heating at 95° C. for five minutes. 10 μL of each sample was loaded on a 12% SDS-PAGE gels (BioRad) and run for 80 minutes at 110 volts. Three identical gels were loaded and run at the same time. One gel was used for Coomassie staining with Coomassie Fluor Orange Protein Gel Stain (Molecular Probes) following the manufacturer's protocol. The two other gels were transferred to nitrocellulose membranes by the semidry transfer method, blocked for two hours at 4° C. with 5% non-fat milk, and treated overnight at 4° C. with a 1:1000 dilution of pan-Akt rabbit monoclonal antibody (Cell Signaling Technology) and a 1:1000 dilution of pS473 Akt rabbit monoclonal antibody (Cell Signaling Technology), respectively, in 0.5% non-fat milk. The membranes were washed and treated for an hour with a 1:10,000 dilution of monoclonal mouse anti-rabbit-HRP secondary antibody (Cell Signaling Technology) in 0.5% milk. After five washes of five minutes each with TBST and one wash of five minutes with TBS, the blots were developed with West Dura ECL substrate (Thermo Scientific) and imaged on film.

Akt2 [1] = target: T2, Akt2 (Homo sapiens, UniProt P31751); details: read-out: equilibrium dissociation constant KD; SPR, Akt2 protein as analyte, 1:1 binding model, 10° C.
T2 sequence (P31751 whole entry): as above
Description: A Biacore T100 machine was used for SPR experiments. A Streptavidin Chip (Series S, G.E. Healthcare) was conditioned as per manufacturer's recommendation. A stock of 1 mM biotinylated ligand was diluted into HBSP+ Buffer (G.E. Healthcare) to a final concentration of 100 nM and ˜150 RU was immobilized on the chip. Serial dilutions of the Akt2 protein were made in HBSP+ buffer for the experiment with the immobilized N-tL. The solution was flowed over the chip at 50 μL/min. Binding and dissociation were carried out at 10° C. with a contact time of 350 sec, a dissociation time of 390 sec, and a stabilization time of 200 sec, with buffer blanks between each concentration. The response was double corrected, using an unmodified reference flow cell and the response for the 0 concentration of Akt2 on the sample flow cell. The data was fitted to the kinetic Langmuir 1:1 binding model using the Biacore Evaluation software for T100 to calculate the dissociation constant.

Akt2 [2] = target: T2, Akt2; experiment: Single component ELISA, PCC agent as capture or detection agent (relative affinity); assay type: binding; set-up: purchased Abcam
Source text: FIG. 23: A. ELISA assays in which the PCC Agents are utilized as either as surface-localized capture agents (for N-tL, C-tL) or as the detection agent (for mono-L, bi-L). Such assays provide relative affinity measurements, which are given as EC50 values in the key. […] C. C-tL distinguishes the full length Akt2 from isoform proteins Akt1 and Akt3. D. The 32 amino acid long C terminal fragment from Akt2, Akt1 and Akt3. The hydrophobic motif is highlighted in blue. pS refers to phospho-serine. […] F. Selectivity assays: Biotinylated ligands or biotinylated pS473 antibody is immobilized on streptavidin-agarose and treated with OVCAR3 cell lysate. The eluents are stained with a pan-Akt antibody or pS473 Akt antibody.
1.25 μM biotinylated ligand was prepared by diluting the 1 mM stock in binding buffer (25 mM tris chloride, pH=7.4, 150 mM NaCl, 0.1% BSA, 0.05% Tween 20). The prepared ligand solution or 0.125% DMSO in buffer (buffer control) was immobilized on a High Capacity Streptavidin 96 well plate (Thermo Scientific). After washing away the excess ligand, the plate was blocked overnight with 1% BSA/25 mM tris chloride, pH=7.4/150 mM NaCl, 0.05% Tween 20. 2.5 μM solutions of the His6 (SEQ ID NO:28) tagged target phosphopeptide epitope Akt2 amino acids 450-481, His6 (SEQ ID NO:28) tagged Akt1 amino acids 449-480, His6 (SEQ ID NO:28) tagged Akt3 amino acids 448-479 were added to each of the wells. Following three washes with the binding buffer, the plate was treated for an hour with a 1:1000 dilution of anti His6 (SEQ ID NO:28) mouse monoclonal antibody. A 1:10,000 dilution of goat anti mouse antibody-Horse Radish Peroxide conjugate in binding buffer was added to the wells. The plates were washed four times, five minutes each, with 0.05% Tween 20/TBS (25 mM tris chloride, pH=7.5, 150 mM NaCl) and once with TBS (25 mM tris chloride, pH=7.5, 150 mM NaCl). Color was developed by adding TMB substrate (KPL) to each well. The reaction was quenched with 0.5 M H2SO4. The A450 measured on a 96-well plate reader. The Net A450 was obtained by subtracting the absorbance value for the blank control (no immobilized ligand) from each of the triplicate values obtained for the ligand-epitope interaction. The selectivity assay with full length His6 (SEQ ID NO:28) tagged Akt1, Akt2 and Akt3 was performed following the same protocol, using 25 nM protein instead of 2.5 μM His6 tagged peptide epitope.

Akt2 [3] = target: T2, Akt2; experiment: Non-radioactive kinase assay, phosphorylation of GSK-3α/β fusion protein; assay type: biochemical; set-up: purchased Abcam; details: relative to DMSO control
Description: The non-radioactive kinase assay kit for Akt2 was purchased from Cell Signaling. Ligand solutions were made in DMSO. Kinase reactions were set up in 1× kinase buffer (25 mM trisHCl (pH 7.5), 10 mM MgCl2, 0.01% Triton-X, 1× Complete protease inhibitor (Roche), 1× Phosstop phosphatase inhibitor (Roche)), each 25 μL reaction mixture containing 400 ng Akt2, 400 ng GST-GSK-3α/β fusion protein, […] and 0.5 μL of peptide solutions in DMSO or DMSO only. Reactions were allowed to proceed for 30 minutes at 30° C. A reaction mixture was also prepared using a 1:2.5 dilution of anti pS473 antibody (Cell Signaling) in the kinase buffer instead of the peptide ligand or DMSO. The reactions were quenched by adding 12.5 μL of 2×SDS sample loading buffer and heating at 95° C. for five minutes. 10 μL from each sample was loaded on an any kD SDS gel (BioRad) and run for an hour at 110 volts. Following semidry transfer of the gel to a nitrocellulose membrane, the membrane was blocked in 5% nonfat milk/TBST for an hour at 4° C., and treated overnight at 4° C. with a 1:200 dilution of Phospho GSK-3α/β Ser (21/9) rabbit antibody (Cell Signaling) in 0.5% milk/TBST. Following washes, the membrane was treated with a 1:2000 dilution of mouse anti-rabbit-HRP antibody for an hour at 4° C. After four five minute washes with TBST, and one five minute wash with TBS, the membrane was treated with West Dura ECL substrate (Thermo Scientific) and imaged on film.

[4] = system: SKOV3 ovarian cancer cells; experiment: Western blots of treated SKOV3 cells (Akt signaling pathway); assay type: cell-based
Description: Western blots were performed according to standard protocols. Briefly, cells were lysed with cell lysis buffer (Cell Signaling Technology) containing protease and phosphatase inhibitors (Cell Signaling Technology). Cell lysates were quantified with a Bradford protein assay (Thermo Scientific) and prepared for gel electrophoresis in Laemmli sample buffer and reducing agent. 20 μg of cell lysate were added to precast polyacrylamide gels (Bio-Rad) and proteins were separated by electrophoresis followed by transfer to PVDF membrane. Membranes were then blocked and probed with primary antibodies followed by horseradish peroxidase-conjugated secondary antibodies. The following antibodies were used according to manufacturer protocol: p-GSK3β (Cell Signaling, 9323), GSK3 β (Cell Signaling, 12456), AKT (Cell Signaling, 4691), p-AKT (S473) (Cell Signaling, 4060), Actin (Cell Signaling, 8456), HRP-linked Anti-rabbit IgG (Cell Signaling, 7074). The bands were visualized by chemiluminescence (Thermo Scientific).

OVCAR3 cells = experiment: XTT cell viability assay; assay type: cell-based; details: 50 μM
Description: (§1) The XTT assay kit was purchased from Cell Signaling Technology (#9095) and used according to manufacturer protocol. Briefly, 1×10^4 cells were seeded in a 96-well plate. The following day, cells were serum starved and treated with capture agent. Following treatment, the XTT tetrazolium salt was added to the media and after 1 hour the absorbance at 450 nm was measured in a 96-well plate reader.

SKOV3 cells = experiment: XTT cell viability assay; assay type: cell-based; details: 50 μM
Description: as §1

Compound	immunoprecipitation of phosphorylated Akt from OVCAR3 cell lysate (Akt; eluents stained with pS473 Akt antibody)	immunoprecipitation of Akt from OVCAR3 cell lysate (Akt)	immunoprecipitation of Akt from OVCAR3 cell lysate (Akt; listed as N-tri1)	Kd (Akt2 [1]) [nM]	EC50 (Akt2 [2]; read-out: EC50 from single component ELISA) [nM]	affinity (Akt2 [2]; strongest binding triligand) [nM]	influence on Akt2 kinase activity (p-GSK-3α/β level) (Akt2 [3])	p-Akt level ([4]; 50 μM, time course)	p-GSK-3β level ([4]; 50 μM, time course)	cell viability (XTT) (OVCAR3 cells)	cell viability (XTT) (SKOV3 cells)	phospho-GSK-3β level after pretreatment and EGF stimulation ([4]; 50 μM, 1, 6 and 12 hours pretreatment, then EGF 10 minutes)	phospho-GSK-3β level after pretreatment and EGF stimulation ([4]; 50 μM, 24 hours pretreatment, then EGF)
CC(=O)NC(CCCCn1cc(C[C@@H](NC(=O)[C@H](CCCCn2cc(C[C@@H](NC(=O)[C@@H](Cc3ccccc3)NC(=O)[C@@H](Cc3ccc(O)cc3)NC(=O)CNC(=O)[C@@H](CC(N)=O)NC(=O)[C@@H](Cc3c[nH]cn3)NC(=O)[C@H](CCCCn3cc(C[C@@H](NC(C)=O)C(=O)N[C@H](Cc4ccc(O)cc4)C(=O)N[C@H](Cc4ccc(O)cc4)C(=O)N[C@H](CCCNC(=N)N)C(=O)N[C@H](Cc4ccccc4)C(=O)NCC(N)=O)nn3)NC(C)=O)C(=O)O)nn2)NC(C)=O)C(=O)N[C@H](Cc2c[nH]c3ccccc23)C(=O)N[C@H](CCCCN)C(=O)N[C@@H](C(=O)N[C@H](CCCCN)C(=O)N[C@H](CC(C)C)C(N)=O)C(C)C)nn1)C(=O)NCCOCCOCCOCCC(=O)NCCNC(=O)CCCC[C@@H]1SC[C@@H]2NC(=O)N[C@@H]21 (some centres unmarked) [N-tL]	immunoprecipitate comparable amounts of active pS473 Akt	immunoprecipitates more Akt, irrespective of its phosphorylation state	more efficient; also recorded: immunoprecipitate Akt2 from OVCAR3 cells	25	19	~20	activate Akt above baseline; also recorded: activate Akt2						
tri_a: Akt-activating N-terminal triligand, conjugated to HIV TAT peptide via PEG spacers for cell assays (FIG. 28, 33A) (peptide 1 WKVKL; peptide 2 HNGYF; peptide 3 XYYRFG; peptide 4 GRKKRRQRRRPPQQ; not fully specified; D-residues; non-natural residues)							activate	initially increases and then steadily decreases over time	highest level of GSK3B phosphorylation is seen after 1 hour treatment; also recorded: clear increase in the p-GSK-3β level relative to the untreated and EGF-stimulated cells	significant increase in viability after 1 day treatment followed by a decline; also recorded: sharp increase after 24 hours is followed by a steady decrease before finally stabilizing	significant increase in viability after 1 day treatment followed by a decline; also recorded: initial spike in cell viability after 24 hours, followed by a linear decrease with time		
tri_i: Akt-inhibiting C-terminal triligand, TAT-modified, with fluorescein label (FIG. 31, 35a) (peptide 1 Ac-[Lys(N3)][dH][dD]GG[dF]; peptide 2 S3-[dW][dK][dV][dK]; peptide 3 {5FAM-Ahx-Cys-Peg2}-[dH][dN]G[dY][dF][dPra]; peptide 4 {5‑azidopentanoyl-Peg2}-GRKKRRQRRRPPQQ-NH2; not fully specified (C-terminus); also: arms joined by triazoles, fluorescein label (Peg2-Cys-Ahx-5-carboxyfluorescein) coupled via DBCO-maleimide to TAT)							inhibit			significant decrease in viability after 1 day treatment; also recorded: initial drop in cell viability after 24 hours, followed by an increase before finally decreasing again	significant decrease in viability after 1 day treatment; also recorded: initial drop in cell viability and remain consistently lower than untreated cells for 5 days	less phospho-GSK-3β than EGF stimulation alone; also recorded: less phospho-GSK3-β than untreated cells stimulated with EGF alone	dramatic increase in levels of phospho-GSK3-β
